Laboratory results reported in patent US20260124192A1, “COMPOUNDS, COMPOSITIONS, AND METHODS OF TREATING RNA VIRAL INFECTIONS” (priority 2024, published 2026).

What was measured:
[1] = tested on: Vero 76 cells; settings: with CPE assays (SARS-CoV-2 WA1, Delta), not converted for FBS
[2] = tested on: SARS-CoV-2 USA-WA1/2020; assay: SARS-CoV-2 immunofluorescence (IF) assay, HeLa-ACE2 (Method 1); format: cell-based; settings: Severe acute respiratory syndrome coronavirus 2, HeLa-ACE2, SARS-CoV-2 USA-WA1/2020, 2% FBS

## Cc1c(-c2ccc(O)cc2)n(Cc2ccc(OCCN3CCCCC3)cc2)c2ccc(O)cc12 [Pipendoxifene]
[1]
  CC50: 3.2 µM
[2]
  EC50: 0.675 µM
